In one data set the target is T1, PI3 Kinase (p110α/p85α) (Homo sapiens, UniProt P42336).
T1 construct: purchased Millipore KinaseProfiler
In words: Kinome profiler screen. Type of data set: biochemical. To be noted: at 20,000 nM inhibitor; kinase activity remaining.

Data set [1] addresses T2, PI3 Kinase (p110α (E545K)/p85α) (Homo sapiens, UniProt P42336, E545K).
T2 construct: purchased Millipore KinaseProfiler
Briefly: Kinome profiler screen. Particulars: at 20,000 nM inhibitor; kinase activity remaining. It is filed as biochemical.

For data set [2], the system named is phospho-MK-2 (p38αMAPK substrate) in BV-2 cells. In words: LPS-induced phosphorylation of MK-2 in BV-2 cells. It is filed as cell-based, murine. To be noted: LPS-stimulated BV-2 cells, 60 min.
The target in data set [3] is T3, PI3 Kinase (p110α (H1047R)/p85α) (Homo sapiens, UniProt P42336, H1047R).
T3 construct: purchased Millipore KinaseProfiler
Briefly: Kinome profiler screen. It is filed as biochemical. To be noted: at 20,000 nM inhibitor; kinase activity remaining.

For another data set, the target named is JNK2α2 (Homo sapiens, UniProt P45984). In words: biochemical.
In another data set the target is T4, PI3 kinase (p110α/p65α) (Homo sapiens, UniProt P42336).
T4 construct: purchased Millipore KinaseProfiler
Briefly: Kinome profiler screen. It is filed as biochemical. Particulars: at 20,000 nM inhibitor; kinase activity remaining.

The target of a further data set is T5, Blk (Homo sapiens, UniProt P51451).
T5 construct: purchased Millipore KinaseProfiler
Briefly: Kinome profiler screen. It is filed as biochemical. Particulars: at 20,000 nM inhibitor; kinase activity remaining.

Another data set deals with panel of 158 GPCRs. In words: Functional GPCR agonist and antagonist screen (calcium flux FLIPR). To be noted: outcome in words. Type of data set: cell-based. (Calcium flux is commonly read through the fluorescence of an indicator in the cells.)
The next data set concerns the target T6, Aurora-C (Homo sapiens, UniProt Q9UQB9).
T6 construct: purchased Millipore KinaseProfiler
Briefly: Kinome profiler screen. It is filed as biochemical. Particulars: at 20,000 nM inhibitor; kinase activity remaining.

Data set [4] deals with T7, PI3 Kinase (p110α (E542K)/p85α) (Homo sapiens, UniProt P42336, E542K).
T7 construct: purchased Millipore KinaseProfiler
Briefly: Kinome profiler screen. Type of data set: biochemical. Particulars: at 20,000 nM inhibitor; kinase activity remaining.

A further data set relates to MLCK. In words: Kinome profiler screen. It is filed as biochemical. To be noted: at 20,000 nM inhibitor; kinase activity remaining.
A further data set has as its target T8, SAPK3 (SAPK=p38MAPK) (Homo sapiens, UniProt P53778).
T8 construct: purchased Millipore KinaseProfiler
In words: Kinome profiler screen. Type of data set: biochemical. Particulars: at 20,000 nM inhibitor; kinase activity remaining.

The next data set has as its target T9, SAPK4 (SAPK=p38MAPK) (Homo sapiens, UniProt O15264).
T9 construct: purchased Millipore KinaseProfiler
Briefly: Kinome profiler screen. Type of data set: biochemical. To be noted: at 20,000 nM inhibitor; kinase activity remaining.

In data set [5] the test system is PI3 Kinase (p110α (H1047R)/p85α). In words: Kinome profiler screen. To be noted: at 20,000 nM inhibitor; kinase activity remaining. It is filed as biochemical.
A further data set addresses T10, NLK (Homo sapiens, UniProt Q9UBE8).
T10 sequence (Q9UBE8 1-527): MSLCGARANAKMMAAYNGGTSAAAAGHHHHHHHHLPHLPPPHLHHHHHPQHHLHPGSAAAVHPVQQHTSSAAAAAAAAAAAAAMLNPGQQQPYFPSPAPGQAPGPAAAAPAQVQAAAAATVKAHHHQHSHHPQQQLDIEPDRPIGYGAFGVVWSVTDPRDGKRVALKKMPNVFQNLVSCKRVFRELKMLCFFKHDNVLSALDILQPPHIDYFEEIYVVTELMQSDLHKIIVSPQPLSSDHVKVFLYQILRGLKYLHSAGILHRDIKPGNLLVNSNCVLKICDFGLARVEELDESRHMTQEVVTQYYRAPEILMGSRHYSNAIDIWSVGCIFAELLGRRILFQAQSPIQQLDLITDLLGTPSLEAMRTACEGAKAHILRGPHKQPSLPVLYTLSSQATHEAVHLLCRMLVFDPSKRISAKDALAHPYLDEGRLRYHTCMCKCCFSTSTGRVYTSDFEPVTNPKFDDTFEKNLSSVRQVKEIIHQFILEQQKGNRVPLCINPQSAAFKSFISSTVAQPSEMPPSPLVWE
Briefly: Kinetic analysis, Ki. It is filed as biochemical. Set-up: purchased Millipore.

Data set [6] is described as follows: Acid dissociation constant (pKa). Type of data set: physicochemical. To be noted: water with methanol co-solvent, ionic strength 0.15 M KCl, 22±2°C.

Read-outs that look alike come from different tables or passages of the source.

T7 sequence (P42336 whole entry E542K): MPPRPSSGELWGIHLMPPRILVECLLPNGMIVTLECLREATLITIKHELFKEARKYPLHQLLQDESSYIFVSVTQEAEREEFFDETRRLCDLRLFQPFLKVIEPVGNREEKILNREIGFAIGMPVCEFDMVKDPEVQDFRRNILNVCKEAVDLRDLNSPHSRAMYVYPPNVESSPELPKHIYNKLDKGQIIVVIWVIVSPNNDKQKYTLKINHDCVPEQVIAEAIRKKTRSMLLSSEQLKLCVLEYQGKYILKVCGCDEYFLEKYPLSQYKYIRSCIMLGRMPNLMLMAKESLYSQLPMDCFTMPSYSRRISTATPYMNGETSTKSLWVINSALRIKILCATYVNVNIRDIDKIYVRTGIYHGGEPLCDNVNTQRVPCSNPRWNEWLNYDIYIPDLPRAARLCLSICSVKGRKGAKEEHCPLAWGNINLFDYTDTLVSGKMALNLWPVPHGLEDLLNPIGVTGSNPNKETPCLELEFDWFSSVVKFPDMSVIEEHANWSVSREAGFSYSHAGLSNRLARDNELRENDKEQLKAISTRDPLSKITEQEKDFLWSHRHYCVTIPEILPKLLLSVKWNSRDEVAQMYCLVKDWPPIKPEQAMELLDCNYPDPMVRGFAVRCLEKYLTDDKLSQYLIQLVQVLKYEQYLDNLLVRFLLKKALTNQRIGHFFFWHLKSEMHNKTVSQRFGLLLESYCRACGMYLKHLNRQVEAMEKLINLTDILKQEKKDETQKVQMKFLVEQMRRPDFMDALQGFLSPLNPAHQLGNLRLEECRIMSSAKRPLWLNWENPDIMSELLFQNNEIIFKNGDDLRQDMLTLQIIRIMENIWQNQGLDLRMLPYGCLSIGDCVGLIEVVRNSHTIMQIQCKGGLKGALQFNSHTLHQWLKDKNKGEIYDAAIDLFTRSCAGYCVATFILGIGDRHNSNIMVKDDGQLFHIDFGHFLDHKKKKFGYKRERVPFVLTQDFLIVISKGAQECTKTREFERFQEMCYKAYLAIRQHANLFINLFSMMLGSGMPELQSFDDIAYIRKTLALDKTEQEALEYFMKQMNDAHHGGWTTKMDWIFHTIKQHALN
T7 sequence (P27986 whole entry partner): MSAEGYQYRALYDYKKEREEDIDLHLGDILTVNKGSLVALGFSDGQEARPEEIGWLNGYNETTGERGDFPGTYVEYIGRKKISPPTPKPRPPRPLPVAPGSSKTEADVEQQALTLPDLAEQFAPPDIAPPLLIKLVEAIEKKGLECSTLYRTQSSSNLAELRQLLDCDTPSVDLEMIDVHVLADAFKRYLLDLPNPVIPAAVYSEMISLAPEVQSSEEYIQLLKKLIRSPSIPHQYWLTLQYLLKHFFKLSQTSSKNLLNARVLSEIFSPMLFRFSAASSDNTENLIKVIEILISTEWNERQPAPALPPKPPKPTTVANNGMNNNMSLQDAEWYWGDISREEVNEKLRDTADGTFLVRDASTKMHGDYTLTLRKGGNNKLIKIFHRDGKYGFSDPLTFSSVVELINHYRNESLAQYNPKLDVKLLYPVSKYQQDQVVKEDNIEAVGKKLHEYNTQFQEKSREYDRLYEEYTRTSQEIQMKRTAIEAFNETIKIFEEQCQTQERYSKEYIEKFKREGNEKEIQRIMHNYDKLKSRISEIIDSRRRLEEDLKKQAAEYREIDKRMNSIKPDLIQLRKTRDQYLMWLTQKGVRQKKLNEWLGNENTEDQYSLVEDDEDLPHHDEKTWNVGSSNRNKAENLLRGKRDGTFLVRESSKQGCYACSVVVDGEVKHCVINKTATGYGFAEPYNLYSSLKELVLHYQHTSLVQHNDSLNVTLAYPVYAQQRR
T2 sequence (P42336 whole entry E545K): as the sequence (P42336 whole entry E542K) above, with K542E, E545K counted along it
T2 sequence (P27986 whole entry partner): as the sequence (P27986 whole entry partner) above
T6 sequence (Q9UQB9 whole entry): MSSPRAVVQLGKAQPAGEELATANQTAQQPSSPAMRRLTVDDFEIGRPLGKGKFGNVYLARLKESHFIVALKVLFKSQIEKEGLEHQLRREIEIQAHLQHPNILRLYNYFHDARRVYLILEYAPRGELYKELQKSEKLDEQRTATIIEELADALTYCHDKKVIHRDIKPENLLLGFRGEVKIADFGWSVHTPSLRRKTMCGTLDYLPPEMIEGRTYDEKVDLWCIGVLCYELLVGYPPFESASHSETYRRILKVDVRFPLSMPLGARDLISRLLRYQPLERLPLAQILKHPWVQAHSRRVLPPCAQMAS
T4 sequence (P42336 whole entry): as the sequence (P42336 whole entry E542K) above, with K542E counted along it
T4 sequence (P27986 1-571 partner limits assumed): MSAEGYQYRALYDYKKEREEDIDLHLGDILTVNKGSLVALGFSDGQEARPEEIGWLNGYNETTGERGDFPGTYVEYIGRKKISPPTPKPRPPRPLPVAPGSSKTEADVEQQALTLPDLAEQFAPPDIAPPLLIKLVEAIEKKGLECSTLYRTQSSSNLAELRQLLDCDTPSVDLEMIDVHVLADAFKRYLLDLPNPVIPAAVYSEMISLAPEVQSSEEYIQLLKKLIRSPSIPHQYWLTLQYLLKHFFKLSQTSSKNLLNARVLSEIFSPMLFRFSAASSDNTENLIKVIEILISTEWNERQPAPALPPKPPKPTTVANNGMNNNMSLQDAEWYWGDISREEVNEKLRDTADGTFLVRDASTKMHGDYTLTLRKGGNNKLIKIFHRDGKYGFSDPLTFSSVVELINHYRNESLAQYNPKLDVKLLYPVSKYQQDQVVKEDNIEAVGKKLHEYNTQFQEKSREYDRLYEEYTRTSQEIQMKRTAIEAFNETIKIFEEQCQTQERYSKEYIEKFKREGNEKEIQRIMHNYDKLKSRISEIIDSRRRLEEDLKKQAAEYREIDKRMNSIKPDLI
T1 sequence (P42336 whole entry): as the sequence (P42336 whole entry E542K) above, with K542E counted along it
T1 sequence (P27986 whole entry partner): as the sequence (P27986 whole entry partner) above
T5 sequence (P51451 whole entry): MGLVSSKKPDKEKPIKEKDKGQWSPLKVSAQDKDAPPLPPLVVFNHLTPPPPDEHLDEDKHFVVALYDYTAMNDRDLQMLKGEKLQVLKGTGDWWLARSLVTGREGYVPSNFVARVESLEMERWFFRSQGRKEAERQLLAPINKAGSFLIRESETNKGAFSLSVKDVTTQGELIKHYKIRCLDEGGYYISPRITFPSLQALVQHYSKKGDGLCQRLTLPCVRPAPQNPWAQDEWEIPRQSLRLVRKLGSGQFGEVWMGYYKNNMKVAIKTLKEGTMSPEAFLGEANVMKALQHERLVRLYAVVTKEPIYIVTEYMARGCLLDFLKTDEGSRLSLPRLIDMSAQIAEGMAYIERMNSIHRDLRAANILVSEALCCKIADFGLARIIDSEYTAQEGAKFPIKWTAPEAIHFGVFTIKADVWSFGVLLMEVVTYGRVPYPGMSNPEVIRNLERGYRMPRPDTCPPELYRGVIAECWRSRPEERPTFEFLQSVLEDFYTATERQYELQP
JNK2α2, sequence (P45984 whole entry): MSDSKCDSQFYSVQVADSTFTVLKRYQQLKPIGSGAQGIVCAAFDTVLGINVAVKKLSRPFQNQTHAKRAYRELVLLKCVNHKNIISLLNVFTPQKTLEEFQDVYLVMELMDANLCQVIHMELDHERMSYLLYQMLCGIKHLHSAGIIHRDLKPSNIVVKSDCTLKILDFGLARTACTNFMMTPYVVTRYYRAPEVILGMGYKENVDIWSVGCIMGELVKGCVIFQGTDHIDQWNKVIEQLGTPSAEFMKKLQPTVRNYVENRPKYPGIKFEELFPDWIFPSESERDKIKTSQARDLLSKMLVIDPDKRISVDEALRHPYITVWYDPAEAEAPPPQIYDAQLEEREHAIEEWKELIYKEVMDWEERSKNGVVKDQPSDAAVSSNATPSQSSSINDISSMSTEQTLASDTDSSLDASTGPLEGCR
T9 sequence (O15264 whole entry): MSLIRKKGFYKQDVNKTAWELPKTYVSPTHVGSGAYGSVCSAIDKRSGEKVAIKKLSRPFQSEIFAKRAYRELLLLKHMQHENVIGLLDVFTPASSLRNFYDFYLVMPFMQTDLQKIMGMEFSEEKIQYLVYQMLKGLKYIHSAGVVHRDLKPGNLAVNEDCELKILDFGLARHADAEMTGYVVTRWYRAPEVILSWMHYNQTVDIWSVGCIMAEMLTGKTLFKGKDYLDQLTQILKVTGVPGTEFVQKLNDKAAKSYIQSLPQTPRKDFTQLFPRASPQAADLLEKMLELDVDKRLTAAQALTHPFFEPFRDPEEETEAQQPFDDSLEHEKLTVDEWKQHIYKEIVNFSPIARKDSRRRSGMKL
T8 sequence (P53778 whole entry): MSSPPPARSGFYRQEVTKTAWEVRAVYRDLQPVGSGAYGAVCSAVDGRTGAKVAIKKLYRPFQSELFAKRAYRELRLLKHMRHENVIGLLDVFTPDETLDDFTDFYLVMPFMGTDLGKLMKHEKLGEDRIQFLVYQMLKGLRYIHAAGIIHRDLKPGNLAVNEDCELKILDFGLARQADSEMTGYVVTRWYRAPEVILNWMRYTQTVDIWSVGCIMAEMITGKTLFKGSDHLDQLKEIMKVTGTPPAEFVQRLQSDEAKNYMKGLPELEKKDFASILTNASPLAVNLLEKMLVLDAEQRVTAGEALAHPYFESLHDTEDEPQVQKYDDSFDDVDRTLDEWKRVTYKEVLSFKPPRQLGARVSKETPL
T3 sequence (P42336 whole entry H1047R): as the sequence (P42336 whole entry E542K) above, with K542E, H1047R counted along it
T3 sequence (P27986 whole entry partner): as the sequence (P27986 whole entry partner) above

Turning to `CN(C)c1cc(-c2ccncc2)c(-c2ccc3ccccc3c2)nn1` [MW108, N, N-dimethyl-6-(naphthalen-2-yl)-5-(pyridin-4-yl)pyridazin-3-amine], the activity at 20 µM at PI3 Kinase (p110α/p85α) worked out at 98%; in data set [1] it was 98%; in data set [3], 99%; on JNK2α2, 76%; at PI3 kinase (p110α/p65α), 99%; at Blk, 88%. For the same molecule, the activity at 20 µM on Aurora-C came out at 113%; in data set [4] it was 99%; on SAPK3 (SAPK=p38MAPK), 87%; at SAPK4 (SAPK=p38MAPK), 93%. Moreover, the “phosphorylation of the p38α substrate MK2” value in data set [2] was “inhibited phosphorylation of the p38α substrate MK2 in a concentration-dependent manner”. Moreover, in the data set with panel of 158 GPCRs, the “Functional GPCR Agonist and Antagonist Screen” value is recorded as “negative”. The “% Activity” value was 94% in the data set on MLCK and 99% in data set [5].

For `CN(C)c1cc(-c2ccncc2)c(-c2cccc3ccccc23)nn1` [MW181, N,N-dimethyl-6-(naphthalen-1-yl)-5-(pyridin-4-yl)pyridazin-3-amine], the Ki (usually the dissociation constant of the complex between target and ligand, obtained from inhibition or displacement) on NLK was determined as 199 nM. In addition, the pKa (in general, the pH at which an ionisable group is half protonated) was 4.71 ± 0.03 in data set [6] (read-out: pKa (UV method), first value); 3.19 ± 0.09 in [6] (read-out: pKa (UV method), second value); less than 3.5 in data set [6] (read-out: pKa (potentiometric method), second value).
